Test results from the NIST ThermoML archive (doi:10.1021/je8007759).

Test: xn = mol fraction of the nth substance listed

CC1CCC(=O)O1 (stereo not given) [γ-valerolactone] + O=C=O
mass density [kg/m3], Fluid (supercritical or subcritical phases), Pycnometric method
Details | 332.9 K | 337.9 K
11990 kPa, x1 = 0.01 | 547 | –
12040 kPa, x1 = 0.01 | 551 | –
12090 kPa, x1 = 0.01 | 554 | –
12140 kPa, x1 = 0.01 | 558 | –
12190 kPa, x1 = 0.01 | 561 | –
12240 kPa, x1 = 0.01 | 565 | –
12290 kPa, x1 = 0.01 | 569 | –
12340 kPa, x1 = 0.01 | 573 | –
12390 kPa, x1 = 0.01 | 576 | –
12460 kPa, x1 = 0.01 | 580 | –
12530 kPa, x1 = 0.01 | 584 | –
12590 kPa, x1 = 0.01 | 588 | –
12600 kPa, x1 = 0.15 | 914 | –
12670 kPa, x1 = 0.01 | 592 | –
12750 kPa, x1 = 0.15 | 916 | –
12800 kPa, x1 = 0.01 | 600 | –
12820 kPa, x1 = 0.05 | 743 | –
12860 kPa, x1 = 0.05 | 743 | –
12920 kPa, x1 = 0.05 | 746 | –
12950 kPa, x1 = 0.01 | 608 | –
13060 kPa, x1 = 0.05 | 751 | –
13070 kPa, x1 = 0.1 | 854 | –
13090 kPa, x1 = 0.15 | 919 | –
13110 kPa, x1 = 0.01 | 617 | –
13170 kPa, x1 = 0.1 | 856 | –
13220 kPa, x1 = 0.05 | 755 | –
13270 kPa, x1 = 0.1 | 858 | –
13330 kPa, x1 = 0.01 | 628 | –
13380 kPa, x1 = 0.05 | 760 | –
13420 kPa, x1 = 0.1 | 861 | –
13440 kPa, x1 = 0.15 | 922 | –
13550 kPa, x1 = 0.05 | 766 | –
13550 kPa, x1 = 0.1 | 863 | –
13730 kPa, x1 = 0.1 | 865 | –
13730 kPa, x1 = 0.15 | 925 | –
13760 kPa, x1 = 0.05 | 770 | –
13890 kPa, x1 = 0.1 | 867 | –
13960 kPa, x1 = 0.05 | 776 | –
14060 kPa, x1 = 0.1 | 870 | –
14160 kPa, x1 = 0.05 | 781 | –
14250 kPa, x1 = 0.15 | 928 | –
14260 kPa, x1 = 0.1 | 873 | –
14310 kPa, x1 = 0.1 | – | 841
14400 kPa, x1 = 0.05 | 786 | –
14470 kPa, x1 = 0.1 | 876 | 844
14580 kPa, x1 = 0.1 | – | 846
14620 kPa, x1 = 0.15 | 931 | –
14680 kPa, x1 = 0.05 | 792 | –
14680 kPa, x1 = 0.1 | 878 | –
14740 kPa, x1 = 0.1 | – | 848
14900 kPa, x1 = 0.1 | – | 851
14960 kPa, x1 = 0.05 | 798 | –
15000 kPa, x1 = 0.15 | 933 | –
15020 kPa, x1 = 0.1 | – | 852
15140 kPa, x1 = 0.1 | 884 | –
15200 kPa, x1 = 0.1 | – | 855
15260 kPa, x1 = 0.05 | 803 | –
15360 kPa, x1 = 0.1 | – | 857
15420 kPa, x1 = 0.1 | 888 | –
15420 kPa, x1 = 0.15 | 937 | –
15550 kPa, x1 = 0.05 | 809 | –
15580 kPa, x1 = 0.1 | – | 859
15660 kPa, x1 = 0.1 | 891 | –
15740 kPa, x1 = 0.1 | – | 862
15840 kPa, x1 = 0.15 | 940 | –
15940 kPa, x1 = 0.1 | – | 864
15950 kPa, x1 = 0.1 | 894 | –
16190 kPa, x1 = 0.1 | – | 868
16260 kPa, x1 = 0.1 | 897 | –
16380 kPa, x1 = 0.15 | 943 | –
16420 kPa, x1 = 0.1 | – | 871
16560 kPa, x1 = 0.1 | 900 | –
16660 kPa, x1 = 0.1 | – | 874
16870 kPa, x1 = 0.1 | 904 | –
16920 kPa, x1 = 0.1 | – | 877
17190 kPa, x1 = 0.1 | 907 | –
17400 kPa, x1 = 0.1 | – | 883

mass density [kg/m3], 332.9 K, high pressure variable cell
Details | x1 = 0.01 | x1 = 0.05 | x1 = 0.1 | x1 = 0.15
Gas | 486 | 742 | – | –
Liquid | – | – | 851 | 913

Liquid, high pressure variable cell
Details | Critical density [kg/m3]
x1 = 0.025 | 679
x1 = 0.05 | 774
x1 = 0.1 | 837
